In ChEMBL document CHEMBL1153972, “Solution studies on the complex of 4'-epiadriamycin-d-(CGATCG)2 followed by time-resolved fluorescence measurement, diffusion ordered spectroscopy and restrained molecular dynamics simulations” (Bioorg Med Chem, 2009):
Activity calls are given as the source filed them.

Columns and labels:
Assay type in all cases: nucleic-acid assay
Nucleic Acid [1] = assay: Binding affinity to DNA d-(CGATCG)2 assessed as rate of diffusion by diffusion ordered spectroscopy study
Nucleic Acid [2] = assay: Binding affinity to DNA d-(CGATCG)2 at drug to DNA ratio of 2:1 by time resolved fluorescence measurements
Nucleic Acid [3] = assay: Binding affinity to DNA d-(CGATCG)2 at drug to DNA ratio of 2:1 by 2D NOESY experiment
Nucleic Acid [4] = assay: Binding affinity to DNA d-(CGATCG)2 by NMR study

Measured: Activity

COc1cccc2c1C(=O)c1c(O)c3c(c(O)c1C2=O)C[C@@](O)(C(=O)CO)C[C@@H]3O[C@H]1C[C@H](N)[C@@H](O)[C@H](C)O1
active: all assays above
